Entries after “also recorded” stand apart in the source; their conditions may differ.
Key:
ClpP = tested on: ClpP
Experimental: ClpP peptidase activity in vitro was measured as previously described (REF). Briefly, human recombinant ClpP (10 µM, obtained from Dr. Aaron Schimmer, Princes Margartet Cancer Centre, Canada) were incubated in the reaction buffer (50mM Tris PH 8.0, 200mM KCl, 1mM DTT, 2mM ATP) under 37 °C for 10 min. For co-incubation with αSyn, recombinant ClpP and WT or C-terminal truncated or NAC-domain truncated recombinant αSyn (S-1001-1, S-1012-1, S-1015-1, rPeptide) were pre-incubated for 30 min under room temperature. Fluorescent substrate of ClpP, ac-WLA-AMC (50 µM), were then added in the reaction buffer. The fluorescence signal was read using TECAN infinite M1000 up for 30 min at excitation/emission wavelength 345/445. ClpP peptidase activity were determined as the slope of the regression line.
(C) In vitro ClpP peptidase activity was measured in presence of TAT or CS2 peptide (50/100 µM). The fluorescence intensity of ac-WLA-AMC (50 µM), a fluorogenic substrate of ClpP, was measured (0-30 min). Quantification of ClpP activity (n = 5, one-way ANOVA with Tukey’s post-hoc test; data are mean ± SEM).

ClpP (HEK293T cells) = test: ClpP protein level, western blot, HEK293T cells; format: cell-based; details: WT or A53T αSyn overexpression; 30 min pretreatment; n = 4–5 (CS1: n = 4)
[1] = tested on: αSyn oligomerization (VN/VC-αSyn), SH-SY5Y cells; test: BiFC split-Venus αSyn oligomerization in SH-SY5Y cells; format: cell-based
Excerpt: To construct truncated-αSyn plasmids, pcDNA3.1(-) was digested with BsteII and XbaI, and ΔN-, ΔC- and ΔNAC-αSyn was PCR-amplified using self-designed primers and inserted into the plasmid backbone. Cells were transfected with TransIT-2020 (Mirus Bio, LLC) following the manufacturer’s protocol.
The bimolecular fluorescence was examined 24-hour after transfection (n = 3, one-way ANOVA with Tukey’s post-hoc test, scale bar = 30 μm). (D) Quantification of the concentration (ng/ml) of extracellular αSyn monomer and oligomer, and intracellular αSyn oligomer in Tet-inducible SH-SY5Y cells that were pre-treated with TAT or CS2 peptide 30-minute before adding doxycycline (Dox) to induce αSyn expression. The concentration of αSyn species was determined by ELISA (n = 4, one-way ANOVA with Tukey’s post-hoc test; data are mean ± SEM). (E) Representative images of Mito-SOX staining in SH-SY5Y cells that were pre-treated with TAT or CS2 peptide and transfected with split Venus-αSyn vectors. Mitochondrial ROS production was determined by Mito-SOX staining after 24-hour transfection (n = 4, two-tailed Student’s t test, scale bar = 30 μm).
The bimolecular fluorescence was examined 24-hour after the transfection and quantitated (n = 14 areas/group, one-way ANOVA with Tukey’s post-hoc test, data are mean ± SEM).

[2] = tested on: αSyn-PFF-inoculated primary cortical neurons; test: Mitochondrial function (Mito-SOX, TMRM, ATP) in αSyn-PFF-inoculated primary cortical neurons; format: cell-based, mouse; details: 1 µM daily
Experimental: Primary cortical neurons were isolated from normal E18 mouse cortex (sex undetermined) and cultured using complete culturing kit (cat#: KTC57ECX, TransnetYX Tissue). Briefly, 100,000 cells were seeded on poly-D-lysine coated glass coverslips (PDL15mm, TransnetYX Tissue) and cultured in NbActiv1 medium (NB1, TransnetYX Tissue). Neurons were treated with sonicated human α-Syn-PFF (SPR-322, StressMarq Biosciences) starting on post-seeding Day 5 till Day 14. Starting from post-seeding Day 9, TAT or CS2 peptide was added daily at 1µM. Neurons were fixed on Day 14 and subjected for experiments.
Cells cultured on coverslips or 24-well plates were washed with DPBS and then incubated with 5 µM Mito-SOX™ Red (Invitrogen, M36008), a mitochondrial superoxide indicator, for 10 min at 37 °C. For cells cultured on coverslips, the images were visualized by microscope, and quantification of images was then carried out using NIH ImageJ software. At least 100 cells per group were counted in the analysis.
Cells cultured on coverslips or 24-well plates were washed with DPBS and then incubated with 0.25 µM Tetramethylrhodamine, methyl ester (TMRM) (Invitrogen, T668), for 20 min at 37 °C. For cells cultured on coverslips, the images were visualized by microscope, and quantification of images was then carried out using NIH Fiji ImageJ software. At least 100 cells per group were counted in the analysis.
Cells were seeded in 24-well plates, followed by the indicated treatment. The ATP level in each well was determined using the ATP assay kit according to the manufacturer’s procedures (Cayman Chemical, 700410).

wild-type littermates = test: Observed effects on wild-type littermates; format: in vivo, mouse; details: 3 mg/kg/day s.c.; WT littermates
Experimental: C57BL/6 N-Tg (Thy1-SNCA)15Mjff/J (JAX: 017682) breeders (C57Bl/6NJ genetic background) were purchased from Jackson Laboratories. The mice were mated, bred, and genotyped in the animal facility of Case Western Reserve University. All mice were maintained at a 12-hour light/dark cycle (on 6 am, off 6 pm). All randomization and peptide treatments in mThy1-hSNCA mice were prepared by an experimenter not associated with the behavioral and neuropathology analysis. Only male mice were used in the study. mThy1-hSNCA transgenic mice and their age-matched WT littermates were implanted with a 28-day subcutaneous osmotic pump (Alzet, Cupertino CA, Model 2004) containing either TAT control peptide or CS2 peptide, which delivered the peptides at indicated rate (1 or 3 or 10 mg/kg/day). The pump was replaced once every four weeks. All mice were sacrificed at age of 10-month for neuropathology assessment.
All behavioral analyses were conducted by an experimenter who was blinded to the genotypes and treatment groups. All mice were subjected to a series of behavioral measurements to monitor locomotor activity (open field test), spontaneous spatial working memory (Y-maze test), and motor coordination (Rotarod test).

Question: For CC(C)[C@H](NC(=O)CNC(=O)CNC(=O)CCCCCNC(=O)[C@H](CCCNC(=N)N)NC(=O)[C@H](CCCNC(=N)N)NC(=O)[C@H](CCCNC(=N)N)NC(=O)[C@H](CCC(N)=O)NC(=O)[C@H](CCCNC(=N)N)NC(=O)[C@H](CCCNC(=N)N)NC(=O)[C@H](CCCCN)NC(=O)[C@H](CCCCN)NC(=O)[C@H](CCCNC(=N)N)NC(=O)CNC(=O)[C@@H](N)Cc1ccc(O)cc1)C(=O)N[C@H](C(=O)N[C@H](C(=O)N[C@@H](C)C(=O)O)[C@@H](C)O)C(C)C [CS2, TAT-C6-GGVVTA], which “ClpP peptidase activity restoration, WT αSyn” value (ClpP) is on record?
Answer: restored ClpP peptidase activity

Question: What about the “ClpP peptidase activity, peptide alone” value (ClpP) of the same compound?
Answer: neither TAT nor CS2 alone impaired ClpP activity

Question: And the “ClpP peptidase activity restoration, A53T αSyn” value (ClpP; inhibition by A53T mutant αSyn, ac-WLA-AMC 50 µM, 0–30 min, representative of 4 experiments)?
Answer: restored ClpP peptidase activity

Question: What about the “ClpP protein level, HEK293T” value (ClpP (HEK293T cells)) of the same compound?
Answer: significantly restored ClpP protein levels

Question: And the “αSyn oligomerization, ClpP-deficient cells” value ([1]; ClpPsh SH-SY5Y, effect of reducing αSyn oligomerization, n = 14 areas/group)?
Answer: no protective effect; also recorded: not observed in ClpP-deficient cells

Question: And the “BiFC signal / αSyn oligomerization” value ([1]; SH-SY5Y expressing VN/VC-αSyn, 24-hour after transfection)?
Answer: significantly reduced BiFC signal intensity

Question: And the IC50 ([1]; SH-SY5Y expressing VN/VC-αSyn, pretreatment, 24-hour after transfection, n = 3, read-out: IC50, BiFC αSyn oligomer formation)?
Answer: ~2.5 µM

Question: What about the “ATP content, PFF neurons” value ([2]; n = 4) of the same compound?
Answer: rescued mitochondrial membrane potential and ATP content

Question: And the “mitochondrial ROS, PFF neurons” value ([2]; Mito-SOX, n = 90-100 neurons per group)?
Answer: reduced mitochondrial ROS

Question: What about the “mitochondrial membrane potential, PFF neurons” value ([2]; TMRM, n = 90-100 neurons per group) of the same compound?
Answer: rescued mitochondrial membrane potential

Question: And the “effects on wild-type littermates” value (wild-type littermates)?
Answer: no observable effects on wild-type littermates
